pEC50: −log10 of the molar value.
Molecular target: human F508del-CFTR (Homo sapiens, UniProt P13569, DEL508-508)
Experiment: F508del-CFTR cell surface expression (corrector activity), DiscoveRx ß-galactosidase complementation chemiluminescence assay in recombinant U2OS cell line;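 also: U2OS cells co-expressing ProLink-tagged F508del-CFTR and a membrane-anchored enzyme acceptor, where more surface CFTR restores β-galactosidase activity measured by chemiluminescence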
Settings: U2OS cells, 16h compound incubation; for pEC50: EC50, F508del-CFTR cell surface expression, geomean of several measurements; for Emax: U2OS, in relation to the Emax of the corrector lumacaftor (=100%), arithmetic mean

human F508del-CFTR, sequence (P13569 with tags, fused parts or gaps DEL508-508): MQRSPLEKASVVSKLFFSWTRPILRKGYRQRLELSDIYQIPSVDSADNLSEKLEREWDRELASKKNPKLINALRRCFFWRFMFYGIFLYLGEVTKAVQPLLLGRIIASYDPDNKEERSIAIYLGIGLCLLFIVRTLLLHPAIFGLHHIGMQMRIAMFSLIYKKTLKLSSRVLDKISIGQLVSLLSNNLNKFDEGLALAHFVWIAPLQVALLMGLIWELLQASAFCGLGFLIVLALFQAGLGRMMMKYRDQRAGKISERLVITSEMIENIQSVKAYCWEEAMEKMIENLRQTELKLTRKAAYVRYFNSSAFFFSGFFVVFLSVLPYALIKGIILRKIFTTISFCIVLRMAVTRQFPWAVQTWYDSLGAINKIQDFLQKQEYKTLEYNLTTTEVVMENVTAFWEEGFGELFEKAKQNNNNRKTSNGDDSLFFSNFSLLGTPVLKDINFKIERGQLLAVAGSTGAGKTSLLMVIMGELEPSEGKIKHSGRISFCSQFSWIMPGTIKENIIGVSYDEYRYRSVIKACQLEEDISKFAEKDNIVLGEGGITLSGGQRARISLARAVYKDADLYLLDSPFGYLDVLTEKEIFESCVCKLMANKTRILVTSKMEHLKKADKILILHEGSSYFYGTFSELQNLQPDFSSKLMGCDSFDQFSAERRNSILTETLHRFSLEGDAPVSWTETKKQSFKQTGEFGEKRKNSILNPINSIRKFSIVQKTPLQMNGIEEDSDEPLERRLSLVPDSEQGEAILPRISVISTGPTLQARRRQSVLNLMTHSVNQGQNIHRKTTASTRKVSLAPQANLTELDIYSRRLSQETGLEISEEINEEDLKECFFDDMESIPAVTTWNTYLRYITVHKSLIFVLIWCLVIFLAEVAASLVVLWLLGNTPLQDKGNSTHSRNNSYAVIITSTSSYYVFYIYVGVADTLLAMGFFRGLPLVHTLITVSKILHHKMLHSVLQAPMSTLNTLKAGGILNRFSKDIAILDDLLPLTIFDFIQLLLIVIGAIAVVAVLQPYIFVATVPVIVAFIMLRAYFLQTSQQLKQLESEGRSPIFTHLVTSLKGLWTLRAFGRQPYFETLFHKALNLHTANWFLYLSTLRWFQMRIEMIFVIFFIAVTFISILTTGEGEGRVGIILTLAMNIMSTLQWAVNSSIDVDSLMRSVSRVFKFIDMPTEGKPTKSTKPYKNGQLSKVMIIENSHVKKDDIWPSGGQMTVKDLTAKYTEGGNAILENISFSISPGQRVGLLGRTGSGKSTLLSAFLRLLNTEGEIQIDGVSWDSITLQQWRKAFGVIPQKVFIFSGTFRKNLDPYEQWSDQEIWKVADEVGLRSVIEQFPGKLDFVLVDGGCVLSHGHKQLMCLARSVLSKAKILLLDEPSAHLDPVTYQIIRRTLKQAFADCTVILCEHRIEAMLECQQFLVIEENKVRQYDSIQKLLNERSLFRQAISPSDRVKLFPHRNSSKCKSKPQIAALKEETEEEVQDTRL

Structure (SMILES) | pEC50 | Emax
COc1cc(CCNC(=O)[C@@H]2CC(=O)N(C)[C@@H](CC(C)C)C(=O)N3CCCC[C@@H]3C(=O)N[C@H](Cc3ccccc3)COc3cc(C)c4ncccc4c3C(=O)N2)on1 [Example 822, (9S,13S,19aR,22R)-22-benzyl-13-isobutyl-N-(2-(3-methoxyisoxazol-5-yl)ethyl)-2,12-dimethyl-7,11,14,20-tetraoxo-7,8,9,10,11,12,13,14,17,18,19,19a,20,21,22,23-hexadecahydro-16H-pyrido[2′,1′:6,7][1]oxa[4,7,10,14]tetraazacycloheptadecino[16,17-f]quinoline-9-carboxamide] | 6.88 | 363%
Cc1cc2c3c(ccc2cn1)OC[C@@H](Cc1ccccc1)NC(=O)[C@@H](C)N(C)C(=O)[C@H](CC(C)C)N(C)C(=O)C[C@@H](C(=O)NCCc1cc(C)no1)NC3=O [Example 824, (3S,7S,10R,13R)-13-benzyl-7-isobutyl-6,9,10,20-tetramethyl-N-(2-(3-methylisoxazol-5-yl)ethyl)-1,5,8,11-tetraoxo-1,2,3,4,5,6,7,8,9,10,11,12,13,14-tetradecahydro-[1]oxa[4,7,10,14]tetraazacycloheptadecino[16,17-f]isoquinoline-3-carboxamide] | 6.17 | 354%
COc1cc(CCNC(=O)[C@@H]2CC(=O)N(C)[C@@H](CC(C)C)C(=O)N(C)[C@H](C)C(=O)N[C@H](Cc3ccccc3)COc3ccc4cnc(C)cc4c3C(=O)N2)on1 [Example 825, (3S,7S,10R,13R)-13-benzyl-7-isobutyl-N-(2-(3-methoxyisoxazol-5-yl)ethyl)-6,9,10,20-tetramethyl-1,5,8,11-tetraoxo-1,2,3,4,5,6,7,8,9,10,11,12,13,14-tetradecahydro-[1]oxa[4,7,10,14]tetraazacycloheptadecino[16,17-f]isoquinoline-3-carboxamide] | 6.45 | 388%
COc1cc(CCNC(=O)[C@@H]2CC(=O)N(C)[C@@H](CC(C)C)C(=O)N(C)[C@H](CN3CCC(F)(F)C3)C(=O)N[C@H](Cc3ccccc3)COc3cnc4ccc(F)cc4c3C(=O)N2)on1 [Example 827, (3S,7S,10R,13R)-13-benzyl-10-((3,3-difluoropyrrolidin-1-yl)methyl)-20-fluoro-7-isobutyl-N-(2-(3-methoxyisoxazol-5-yl)ethyl)-6,9-dimethyl-1,5,8,11-tetraoxo-1,2,3,4,5,6,7,8,9,10,11,12,13,14-tetradecahydro-[1]oxa[4,7,10,14]tetraazacycloheptadecino[17,16-c]quinoline-3-carboxamide] | 7.27 | 379%
COc1nc(C)cc2c1C(=O)N[C@H](C(=O)NC[C@@H](O)c1ccccc1)CC(=O)N(C)[C@@H](CC(C)C)C(=O)N(C)[C@H](CC(C)C)C(=O)N[C@H](Cc1ccccc1)CO2 [Example 828, (3R,6R,9S,13S)-3-benzyl-N-((S)-2-hydroxy-2-phenylethyl)-6,9-diisobutyl-16-methoxy-7,10,18-trimethyl-5,8,11,15-tetraoxo-2,3,4,5,6,7,8,9,10,11,12,13,14,15-tetradecahydropyrido[3,4-p][1]oxa[4,7,10,14]tetraazacycloheptadecine-13-carboxamide] | 6.52 | 317%
COCCn1cc(CCNC(=O)[C@@H]2CC(=O)N(C)[C@@H](CC(C)C)C(=O)N(C)C3(CC3)C(=O)N[C@H](Cc3ccccc3)COc3cnc4ccc(F)cc4c3C(=O)N2)cn1 [Example 830, (3′S,7′S,13′R)-13′-benzyl-20′-fluoro-7′-isobutyl-N-(2-(1-(2-methoxyethyl)-1H-pyrazol-4-yl)ethyl)-6′,9′-dimethyl-1′,5′,8′,11′-tetraoxo-2′,3′,4′,5′,6′,7′,8′,9′,11′,12′,13′,14′-dodecahydro-1′H-spiro[cyclopropane-1,10′-[1]oxa[4,7,10,14]tetraazacycloheptadecino[17,16-c]quinoline]-3′-carboxamide] | 5.98 | 310%
COc1nccc2c1C(=O)N[C@H](C(=O)NCC(F)(F)c1nc(C3CC3)no1)CC(=O)N(C)[C@@H](CC(C)C)C(=O)N1CCCC[C@@H]1C(=O)N[C@H](Cc1ccccc1)CO2 [Example 831, (7S,11S,17aR,20R)-20-benzyl-N-(2-(3-cyclopropyl-1,2,4-oxadiazol-5-yl)-2,2-difluoroethyl)-11-isobutyl-4-methoxy-10-methyl-5,9,12,18-tetraoxo-5,6,7,8,9,10,11,12,15,16,17,17a,18,19,20,21-hexadecahydro-14H-dipyrido[2,1-f:3′,4′-p][1]oxa[4,7,10,14]tetraazacycloheptadecine-7-carboxamide] | 6.31 | 231%
C#Cc1nn(CCNC(=O)[C@@H]2CC(=O)N(C)[C@@H](CC(C)C)C(=O)N3CCCC[C@@H]3C(=O)N[C@H](Cc3ccccc3)COc3cc(C)nc(OC)c3C(=O)N2)nc1C [Example 834, (7S,11S,17aR,20R)-20-benzyl-N-(2-(4-ethynyl-5-methyl-2H-1,2,3-triazol-2-yl)ethyl)-11-isobutyl-4-methoxy-2,10-dimethyl-5,9,12,18-tetraoxo-5,6,7,8,9,10,11,12,15,16,17,17a,18,19,20,21-hexadecahydro-14H-dipyrido[2,1-f:3′,4′-p][1]oxa[4,7,10,14]tetraazacycloheptadecine-7-carboxamide] | 6.62 | 300%

Other lines, results leading:

pEC50 | Emax | Structure (SMILES)
6.62 | 366% | Cc1cc2c3c(ccc2cn1)OC[C@@H](Cc1ccccc1)NC(=O)[C@H]1CCCCN1C(=O)[C@H](CC(C)C)N(C)C(=O)C[C@@H](C(=O)NCCn1nnc(C2CC2)n1)NC3=O [Example 823, (9S,13S,19aR,22R)-22-benzyl-N-(2-(5-cyclopropyl-2H-tetrazol-2-yl)ethyl)-13-isobutyl-5,12-dimethyl-7,11,14,20-tetraoxo-7,8,9,10,11,12,13,14,17,18,19,19a,20,21,22,23-hexadecahydro-16H-pyrido[2′,1′:6,7][1]oxa[4,7,10,14]tetraazacycloheptadecino[16,17-f]isoquinoline-9-carboxamide]
6.55 | 340% | Cc1cc2c3c(ccc2cn1)OC[C@@H](Cc1ccccc1)NC(=O)[C@@H](C)N(C)C(=O)[C@H](CC(C)C)N(C)C(=O)C[C@@H](C(=O)NCCc1nc(C2CC2)no1)NC3=O [Example 826, (3S,7S,10R,13R)-13-benzyl-N-(2-(3-cyclopropyl-1,2,4-oxadiazol-5-yl)ethyl)-7-isobutyl-6,9,10,20-tetramethyl-1,5,8,11-tetraoxo-1,2,3,4,5,6,7,8,9,10,11,12,13,14-tetradecahydro-[1]oxa[4,7,10,14]tetraazacycloheptadecino[16,17-f]isoquinoline-3-carboxamide]
6.85 | 320% | CC(C)C[C@H]1C(=O)N2CCCC[C@@H]2C(=O)N[C@H](Cc2ccccc2)COc2ccc3ncc(F)cc3c2C(=O)N[C@H](C(=O)NCCn2nnc(C3CC3)n2)CC(=O)N1C [Example 829, (9S,13S,19aR,22R)-22-benzyl-N-(2-(5-cyclopropyl-2H-tetrazol-2-yl)ethyl)-5-fluoro-13-isobutyl-12-methyl-7,11,14,20-tetraoxo-7,8,9,10,11,12,13,14,17,18,19,19a,20,21,22,23-hexadecahydro-16H-pyrido[2′,1′:6,7][1]oxa[4,7,10,14]tetraazacycloheptadecino[16,17-f]quinoline-9-carboxamide]
6.29 | 367% | COc1nccc2c1C(=O)N[C@H](C(=O)NCCn1nc3ccccc3n1)CC(=O)N(C)[C@@H](CC(C)C)C(=O)N1CCCC[C@@H]1C(=O)N[C@H](Cc1ccccc1)CO2 [Example 832, (7S,11S,17aR,20R)-N-(2-(2H-benzo[d][1,2,3]triazol-2-yl)ethyl)-20-benzyl-11-isobutyl-4-methoxy-10-methyl-5,9,12,18-tetraoxo-5,6,7,8,9,10,11,12,15,16,17,17a,18,19,20,21-hexadecahydro-14H-dipyrido[2,1-f:3′,4′-p][1]oxa[4,7,10,14]tetraazacycloheptadecine-7-carboxamide]
6.21 | 411% | COc1nccc2c1C(=O)N[C@H](C(=O)NCCn1nnc(C3CC3)n1)CC(=O)N(C)[C@@H](CC(C)C)C(=O)N1CCCC[C@@H]1C(=O)N[C@H](Cc1ccccc1)CO2 [Example 833, (7S,11S,17aR,20R)-20-benzyl-N-(2-(5-cyclopropyl-2H-tetrazol-2-yl)ethyl)-11-isobutyl-4-methoxy-10-methyl-5,9,12,18-tetraoxo-5,6,7,8,9,10,11,12,15,16,17,17a,18,19,20,21-hexadecahydro-14H-dipyrido[2,1-f:3′,4′-p][1]oxa[4,7,10,14]tetraazacycloheptadecine-7-carboxamide]
6.44 | 326% | COc1nc(C)cc2c1C(=O)N[C@H](C(=O)NCCn1nnc(C3CC3)n1)CC(=O)N(C)[C@@H](CC(C)C)C(=O)N1CCCC[C@@H]1C(=O)N[C@H](Cc1ccccc1)CO2 [Example 835, (7S,11S,17aR,20R)-20-benzyl-N-(2-(5-cyclopropyl-2H-tetrazol-2-yl)ethyl)-11-isobutyl-4-methoxy-2,10-dimethyl-5,9,12,18-tetraoxo-5,6,7,8,9,10,11,12,15,16,17,17a,18,19,20,21-hexadecahydro-14H-dipyrido[2,1-f:3′,4′-p][1]oxa[4,7,10,14]tetraazacycloheptadecine-7-carboxamide]
6.01 | 257% | COc1nc(C)cc2c1C(=O)N[C@H](C(=O)NCCn1ncc(C#N)n1)CC(=O)N(C)[C@@H](CC(C)C)C(=O)N1CCCC[C@@H]1C(=O)N[C@H](Cc1ccccc1)CO2 [Example 836, (7S,11S,17aR,20R)-20-benzyl-N-(2-(4-cyano-2H-1,2,3-triazol-2-yl)ethyl)-11-isobutyl-4-methoxy-2,10-dimethyl-5,9,12,18-tetraoxo-5,6,7,8,9,10,11,12,15,16,17,17a,18,19,20,21-hexadecahydro-14H-dipyrido[2,1-f:3′,4′-p][1]oxa[4,7,10,14]tetraazacycloheptadecine-7-carboxamide]
